The subject of assay [1] is Rat carrageenin pedal edema. The assay can be described thus: Rat carrageenin pedal edema inhibitory activity. In kind it is in vivo, rat (Jcl: SD). To be noted: 50 mg/kg, orally, 3 hours after carrageenin; for inhibition in vivo at 50 mg/kg: Rattus norvegicus, po, 3 h, read-out: Inhibitory percentage (carrageenin pedal edema). How it is done: Rat Carrageenin Pedal Edema Inhibitory Activity A Jcl: SD male rat (6 weeks old, weight 160-220 g) was used. After the mesurement of the volume of the dexter hind limb foot pad, a test compound suspended in 5% gum arabic solution was administered orally. Immediately after the administration, water was further administered orally so that the total administration volume of liquid became 5 ml/rat. After one hour, 0.05 ml of 1% carrageenin suspension in physiological saline was injected subcutaneously in the foot pad to induce edema [Winter, […]. and Nuss, G. W.: Proc. Soc. exp. […] Three hours after injection of carrageenin, the volume of the dexter limb was measured, and the edema volume was calculated by the difference between the volume after injection and the volume prior to injection.

A further assay concerns the target T1, cyclooxygenase (Rattus norvegicus, UniProt Q63921).
T1 construct: from tissue; host or cells: platelets in platelet-rich plasma from rat abdominal aorta blood (Jcl:wistar, male)
T1 sequence (Q63921 27-602): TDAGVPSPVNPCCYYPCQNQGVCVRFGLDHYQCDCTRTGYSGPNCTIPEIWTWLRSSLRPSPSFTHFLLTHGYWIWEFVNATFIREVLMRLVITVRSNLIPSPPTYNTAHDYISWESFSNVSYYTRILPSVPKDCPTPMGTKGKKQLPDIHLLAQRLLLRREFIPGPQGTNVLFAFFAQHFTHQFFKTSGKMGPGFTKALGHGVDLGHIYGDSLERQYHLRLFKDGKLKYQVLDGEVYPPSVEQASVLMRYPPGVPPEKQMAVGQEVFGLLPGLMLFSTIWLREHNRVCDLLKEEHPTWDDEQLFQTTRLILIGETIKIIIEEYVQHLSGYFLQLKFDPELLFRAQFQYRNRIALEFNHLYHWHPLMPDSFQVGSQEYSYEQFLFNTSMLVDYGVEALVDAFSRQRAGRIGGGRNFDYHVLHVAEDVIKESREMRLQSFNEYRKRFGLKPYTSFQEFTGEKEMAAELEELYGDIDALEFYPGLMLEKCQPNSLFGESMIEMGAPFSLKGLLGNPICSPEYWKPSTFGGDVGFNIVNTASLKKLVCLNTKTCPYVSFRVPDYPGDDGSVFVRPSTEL
The assay can be described thus: Cyclooxygenase inhibitory activity (HHT formation from arachidonic acid in rat platelet-rich plasma). The format is cell-based, rat (Jcl:wistar).

The test system of assay [2] is Mouse phenylquinone writhing. The assay can be described thus: Mouse phenylquinone writhing inhibitory activity. To be noted: 50 mg/kg, orally; for inhibition in vivo at 50 mg/kg: Mus musculus, po, 20 min, read-out: Inhibitory percentage (phenylquinone writhing). The format is in vivo, mouse (Slc: ICR). How it is done: Mouse Phenylquinone Writhing Inhibitory Activity A Slc: ICR male mouse (4 weeks, weight 17 to 24 g) was used. A test compound suspended in 5% gum arabic solution was administered orally. After 30 minutes, 0.1 ml/10 g body weight of 0.02% phenylquinone solution in water (dissolved by the aid of 5% ethanol) was injected intraperitoneally, and writhing and stretching responses of individual animals were measured for 20 minutes [Siegmund, E., Cadmus, R. and Lu, G.; Proc. Soc. exp. Biol. Med. 95, (1957)].
A general note: An intraperitoneal irritant provokes the stretching counted in writhing tests.

The test system of assay [3] is brewer's yeast induced pyrexia. The assay can be described thus: Antipyretic activity (brewer's yeast induced pyrexia). The format is in vivo, rat (DS line). To be noted: 50 mg/kg, orally; for Antipyretic activity, .increment. °C.: at peak time. On the procedure:
Antipyretic Activity Six male DS line rats, 7 weeks old, weighing 200 to 240 g (Nihon Clea) per one group were used. According to the method of Winder et al. (J. Pharmac. Exp. Ther. 138: 405 (1963)), a suspension of 15% brewer's yeast (Sigma) in physiological saline (1 ml/100 g, b.w.) was injected subcutaneously at 16 hours before measurement of the body temperature to induce pyrexia. After injection of yeast, only water was provided, and each rat was bred separately in a five duplicate cage. At 16, 17 and 18 hours after yeast injection, the rectal temperature was measured by a thermistor thermometer (Takara Kogyo K.K.), and this was taken as the basal body temperature. […] Animals having the body temperature of not lower than 38.5° C. at 18 hours after yeast injection were selected, and a test compound was administered orally (1 ml/100 g, b.w.). As a control, only the solvent was provided. Upon administration, the body temperature of the control group and that of the test compound-administered group were adjusted to the same temperature. The rectal temperature was measured every hour till five hours after administration.

The subject of assay [4] is ART (antigen-responding T-cell). The assay can be described thus: In vitro ART (antigen-responding T-cell) proliferation test. In kind it is cell-based, Lewis rat. To be noted: for inhibition at 1 µM / inhibition at 10 µM: Rattus norvegicus, T-cell, read-out: % Inhibition of ART growth.

Counter-ions that a name gives are not always drawn.

For “4-(4-isobutyrylpiperidylthio)pyridine [Example 136]”, the “Inhibitory percentage (carrageenin pedal edema)” value in assay [1] is listed as 33%.

As usually defined, the IC50 is the concentration needed to halve the response being measured. Lower therefore signals greater potency in that assay. The molecule `O=C(NCCCSc1ccncc1)c1ccc(-c2ccccc2)cc1` [Example 26, 4-[3-(4-phenylbenzoylamino)propylthio]pyridine hydrochloride] gave an IC50 against cyclooxygenase of 3.5 µM. In addition, the inhibition in vivo at 50 mg/kg in assay [2] stood at 67%.

In the case of `O=C(NCCCSc1ccncc1)c1ccc(Cl)cc1` [Example 29, 4-[3-(4-chlorobenzoylamino)propylthio]pyridine hydrochloride], the inhibition in vivo at 50 mg/kg in assay [1] is 25%.

In turn, `O=C(NCCCSc1ccncc1)c1ccccc1` [Example 40, 4-[3-(benzoylamino)propylthio]pyridine] registered an IC50 against cyclooxygenase of 7.6 µM. Further, the inhibition in vivo at 50 mg/kg in assay [2] turned out to be 45%. For the same molecule, in assay [3], the “Antipyretic activity, peak time” value was 3 h and the “Antipyretic activity, .increment. °C.” value is -2.00 °C.

As for `CN(CCCSc1ccncc1)C(=O)c1cccs1` [Example 51, 4-[3-(N-methyl-2-thenoylamino)propylthio]pyridine], it took 8.9 µM to reach half-maximal inhibition at cyclooxygenase (IC50). Moreover, the inhibition in vivo at 50 mg/kg in assay [2] turned out to be 72%.

Take `Cc1ccsc1C(=O)NCCCSc1ccncc1` [Example 60, 4-[3-(3-methylthenoylamino)propylthio]pyridine]: inhibition at cyclooxygenase was half-maximal at 4.2 µM (IC50). Moreover, the inhibition in vivo at 50 mg/kg in assay [2] was determined as 41%.

In the case of `O=C1c2ccccc2C(=O)N1CSc1ccccn1` [Example 64, 2-(phthalimidomethylthio)pyridine], in assay [2], the inhibition in vivo at 50 mg/kg turned out to be 56%. For the same molecule, in assay [3], the “Antipyretic activity, peak time” value turned out to be 3 h and the “Antipyretic activity, .increment. °C.” value was -2.58 °C.

In the case of `CC(C)(C)C(=O)Nc1ncccc1CCN1C(=O)c2ccccc2C1=O.Cl` [Example 71, 3-[2-(phthalimido)ethyl]-2-(pivaloylamino)pyridine hydrochloride], the inhibition in vivo at 50 mg/kg in assay [2] amounted to 55%. For the same molecule, in assay [3], the “Antipyretic activity, peak time” value is 2 h and the “Antipyretic activity, .increment. °C.” value is -0.52 °C.

`CC(=O)N(CCCSc1ccncc1)Cc1ccccc1.Cl` [Example 76, 4-[3-(N-benzyl-N-acetylamino)propylthio]pyridine hydrochloride] showed an IC50 against cyclooxygenase of 13 µM. Also, in assay [2], the “Inhibitory percentage (phenylquinone writhing)” value is recorded as 61%. The “% Inhibition of ART growth” value was found to be 3% in assay [4] (1 μM) and 38% in assay [4] (10 μM).

Turning to `O=C(N(CCCSc1ccncc1)Cc1ccccn1)C(F)(F)F` [Example 78, 4-[3-(N-2-pyridylmethyl-N-trifluoroacetylamino)propylthio] pyridine dihydrochloride], the IC50 against cyclooxygenase is 5.2 µM. In addition, the inhibition in vivo at 50 mg/kg in assay [2] amounted to 55%.

At cyclooxygenase, `O=C(c1ccccc1)N(CCCSc1ccncc1)Cc1ccccn1` [Example 81, 4-[3-(N-2-pyridylmethyl-N-benzoylamino)propylthio]pyridine] gave an IC50 of 6.8 µM. For the same molecule, the “Inhibitory percentage (phenylquinone writhing)” value in assay [2] is on record as 75%.

Regarding `O=C1c2ccccc2C(=O)N1CCCOc1ccncc1` [Example 83, 4-(3-phthalimidopropyloxy)pyridine], on cyclooxygenase, the IC50 stood at 10 µM. Besides, in assay [2], the inhibition in vivo at 50 mg/kg came out at 59%. In assay [3], the “Antipyretic activity, peak time” value came out at 2 h and the “Antipyretic activity, .increment. °C.” value was -0.82 °C.

The molecule `O=C1c2ccccc2C(=O)N1CCCCOc1ccncc1` [Example 84, 4-(4-phthalimidobutyloxy)pyridine] yielded an IC50 against cyclooxygenase of 4.5 µM. The inhibition in vivo at 50 mg/kg in assay [2] was determined as 84%. Besides, in assay [3], the “Antipyretic activity, peak time” value is on record as 3 h and the “Antipyretic activity, .increment. °C.” value was -0.97 °C.

Molecule `O=C(NCCCOc1ccncc1)c1cc2ccccc2s1` [Example 85, 4-[3-(thianaphtene-2-carbonylamino)propyloxy]pyridine] gave an IC50 against cyclooxygenase of 1.4 µM. Also, the inhibition in vivo at 50 mg/kg in assay [2] turned out to be 70%. Moreover, in assay [3], the “Antipyretic activity, peak time” value stood at 2 h and the “Antipyretic activity, .increment. °C.” value is -1.00 °C.

`CCCCCCCCCC(=O)NCCCOc1ccncc1` [Example 88]: the IC50 against cyclooxygenase was 1.2 µM. For the same molecule, in assay [2], the inhibition in vivo at 50 mg/kg came out at 41%.

Consider `O=C(NCCCOc1ccncc1)c1cccs1` [Example 89, 4-[3-(2-thenoylamino)propyloxy]pyridine], for which the inhibition in vivo at 50 mg/kg in assay [2] came to 62%. For the same molecule, in assay [3], the “Antipyretic activity, peak time” value is reported as 3 h and the “Antipyretic activity, .increment. °C.” value is -2.72 °C.

For the molecule `CC(=O)N(CCCSc1ccncc1)Cc1cccs1.Cl` [Example 91, 4-[3-(N-(2-thienylmethyl)-N-acetylamino)-propylthio]pyridine hydrochloride], the “Inhibitory percentage (phenylquinone writhing)” value in assay [2] is 52%. The “% Inhibition of ART growth” value turned out to be 44% in assay [4] (1 μM) and 42% in assay [4] (10 μM).

A word on the inhibition: it is the relative decrease from the control value, in per cent. Turning to `Cl.O=C(c1ccccc1)N(CCCSc1ccncc1)Cc1cccs1` [Example 93, 4-[3-(N-(2-thienylmethyl)benzoylamino)propylthio]pyridine hydrochloride], the IC50 against cyclooxygenase was 6.3 µM. The “Inhibitory percentage (phenylquinone writhing)” value in assay [2] is recorded as 41%. In assay [4] (1 μM), the inhibition at 1 µM amounted to 42%. Also, the inhibition at 10 µM in assay [4] (10 μM) came to 11%.

Regarding `O=C1c2ccccc2C(O)N1CSc1ccncc1` (stereo not shown) [Example 97, 4-(3-hydroxyisoindolin-1-on-2-ylmethylthio)pyridine], the inhibition in vivo at 50 mg/kg in assay [1] is 29%. The inhibition at 1 µM in assay [4] (1 μM) was 30%. For the same molecule, in assay [4] (10 μM), the inhibition at 10 µM is 31%.

The molecule `O=C1c2ccccc2CN1CCCSc1ccncc1` [Example 111, 4-[3-(isoindolin-1-on-2-yl)propylthio]pyridine] showed an IC50 on cyclooxygenase of 7 µM. Besides, the inhibition in vivo at 50 mg/kg in assay [2] was 64%. Also, in assay [3], the “Antipyretic activity, peak time” value is 2 h and the “Antipyretic activity, .increment. °C.” value was -0.68 °C. For the same molecule, the inhibition at 1 µM in assay [4] (1 μM) worked out at 30%. The inhibition at 10 µM in assay [4] (10 μM) is -12%.

In the case of `O=C(c1ccccc1)N(CCOc1ccncc1)Cc1ccccc1` [Example 118, 4-[2-(N-benzyl-N-benzoyl)aminoethyloxy]pyridine hydrochloride], the inhibition in vivo at 50 mg/kg in assay [1] is 31%. In addition, the “% Inhibition of ART growth” value in assay [4] (1 μM, hydrochloride) is recorded as 8%; in assay [4] (10 μM, hydrochloride), 38%.

As for `O=C(NCCCCSc1ccncc1)c1ccccc1` [Example 127, 4-[4-(benzoylamino)butylthio]pyridine], the inhibition in vivo at 50 mg/kg in assay [1] is 32%.

With `O=C(c1cccs1)N1CCC(Sc2ccncc2)CC1` [Example 132], the inhibition in vivo at 50 mg/kg in assay [1] was 45%.

Consider `O=C(NCSc1ccncc1)c1cccnc1` [Example 138, 4-(3-picolinoylaminomethylthio)pyridine], for which the inhibition in vivo at 50 mg/kg in assay [1] came out at 25%.

For the molecule `O=C1CCC(=O)N1CCCCSc1ccncc1` [Example 143, 4-(4-succinimidobutylthio)pyridine], the inhibition in vivo at 50 mg/kg in assay [1] was determined as 27%.

`CC(C)(CSc1ccncc1)CN1C(=O)c2ccccc2C1=O` [Example 145, 4-(2,2-dimethyl-3-phthalimidopropylthio)pyridine]: the inhibition in vivo at 50 mg/kg in assay [1] was found to be 22%. Further, the inhibition at 1 µM in assay [4] (1 μM) amounted to 17%. In assay [4] (10 μM), the inhibition at 10 µM is -42%.

Regarding `O=C1SC(=Cc2ccccc2)C(=O)N1CSc1ccncc1` [Example 159, 4-(5-benzylidene-2,4-thiazolidinedione)methylthiopyridine], in assay [1], the inhibition in vivo at 50 mg/kg was 25%.

(Values after patent publication US5457106A, “Pyridine derivatives, their production and use” (Takeda Chemical Industries, Ltd., priority 1991, dated 1995).)
